Results published in ChEMBL document CHEMBL3228005, “Inhibition of rat passive cutaneous anaphylaxis by 3-(tetrazol-5-yl)quinolines” (1979).

Assays:
Assay type in all cases: functional
Details in all cases: read-out: MED
[1] = tested on: Rattus norvegicus; assay: Inhibition of passive cutaneous anaphylaxis in po dosed Sprague-Dawley rat
[2] = tested on: Rattus norvegicus; assay: Inhibition of passive cutaneous anaphylaxis in ip dosed Sprague-Dawley rat
[3] = tested on: Rattus norvegicus; assay: Inhibition of passive cutaneous anaphylaxis in po dosed Sprague-Dawley rat administered with ball-milled suspension

Row | SMILES | minimal effective dose [1] [mg/kg] | minimal effective dose [2] [mg/kg] | minimal effective dose [3] [mg/kg]
1 | Cc1cccc2cc(-c3nn[nH]n3)cnc12 | 25 | < 25 | 
2 | O=C(O)c1cnc2c(Cl)cccc2c1 | 150 | 25 | 
3 | c1nc2c3c(ccc2cc1-c1nn[nH]n1)CCCC3 | 5 | 5 | 
4 | CCc1ccc2[nH]cc(-c3nn[nH]n3)c(=O)c2c1.O | 0.625 | < 5 | 0.156
5 | CCc1cccc2cc(-c3nn[nH]n3)cnc12 | 5 | 2.5 | 
6 | Cc1cc([N+](=O)[O-])c2cc(-c3nn[nH]n3)cnc2c1C | 25 | 2.5 | 
7 | CCc1cccc2cc(C(=O)O)cnc12 | 75 | > 50 | 
8 | O=C(O)c1cnc2c3c(ccc2c1)CCCC3 | 50 | 25 | 
9 | Cc1cc(F)c2[nH]cc(-c3nn[nH]n3)c(=O)c2c1.O | > 10 | 2.5 | 
10 | COc1ccc2c(=O)c(-c3nn[nH]n3)c[nH]c2c1 |  | 10 | 
11 | O=c1c(-c2nn[nH]n2)c[nH]c2c(C(F)(F)F)cccc12 | > 25 | 0.156 | 
12 | COc1ccc(OC)c2c(=O)c(-c3nn[nH]n3)c[nH]c12 | > 10 | 1.25 | 
13 | O=C(O)c1cnc2ccc(C3CCCCC3)cc2c1 |  | > 25 | 
14 | COc1ccc2cc(C(=O)O)cnc2c1.Cl |  | > 25 | 
15 | COc1ccc2ncc(C(=O)O)c(O)c2c1 | > 100 | > 50 | 
16 | O.O=c1c(-c2nn[nH]n2)c[nH]c2c(Cl)cc(Cl)cc12 | > 10 | > 0.156 | 
17 | O=C1c2ccccc2S(=O)(=O)c2cc(-c3nn[nH]n3)ccc21 [DOXANTRAZOLE] | 5 |  | 
18 | CCCCc1ccc2ncc(-c3nn[nH]n3)cc2c1 | > 25 | 5 | 

Row | SMILES | minimal effective dose [1] [mg/kg] | minimal effective dose [2] [mg/kg] | minimal effective dose [3] [mg/kg]
19 | Fc1ccc2ncc(-c3nn[nH]n3)cc2c1 | 50 | < 25 | 
20 | O=C(O)c1cnc2c(C(F)(F)F)cccc2c1 | 75 | 50 | 
21 | Cc1ccc2cc(C(=O)O)cnc2c1C | 50 | 25 | 
22 | O.O=c1c(-c2nn[nH]n2)c[nH]c2c3c(ccc12)CCCC3 | > 25 |  | 
23 | O=C(O)c1cnc2ccccc2c1 | 150 | 50 | 
24 | O=C(O)c1cnc2ccc(C(F)(F)F)cc2c1 | > 50 | > 25 | 
25 | O=C(O)c1cnc2c(Cl)cccc2c1O | > 100 |  | 
26 | CCc1cccc2c(=O)c(-c3nn[nH]n3)c[nH]c12 | > 25 | 0.312 | 
27 | COc1cccc2c(=O)c(-c3nn[nH]n3)c[nH]c12.O | 0.312 | 0.15 | 
28 | COc1cccc2cc(C(=O)O)cnc12 | 150 | 25 | 
29 | O=c1c(-c2nn[nH]n2)c[nH]c2ccc(Cl)cc12 | > 25 | > 10 | 
30 | COc1cccc2c(O)c(C(=O)O)cnc12 | > 100 | 10 | 
31 | Cc1cccc2cc(C(=O)O)cnc12 | > 25 | > 50 | 
32 | O=c1c(-c2nn[nH]n2)c[nH]c2c(Cl)ccc(Cl)c12 | 0.312 | > 0.156 | 
33 | CC(C)c1cccc2c(=O)c(-c3nn[nH]n3)c[nH]c12 | 10 | 1.25 | 
34 | O=C(O)c1cnc2c(F)cccc2c1O | > 100 |  | 
35 | COc1ccc2ncc(-c3nn[nH]n3)cc2c1.O | > 25 | 10 | 
36 | COc1ccc2ncc(C(=O)O)cc2c1 |  | > 5 | 
